From ChEMBL document CHEMBL1667780, “Identification of a novel small molecule targeting UQCRB of mitochondrial complex III and its anti-angiogenic activity” (Bioorg Med Chem Lett, 2011)
Activity calls are given as the source filed them. No cut-off for these calls is given here.

Assays:
[1] = molecular target: T1, Cytochrome b-c1 complex subunit 7 (Homo sapiens) (UniProt P14927); test: Binding affinity to UQCRB in HUVEC at 30 uM after 24 hrs by ter-caumarin competitive binding assay; assay type: cell-based
T1 sequence (whole entry): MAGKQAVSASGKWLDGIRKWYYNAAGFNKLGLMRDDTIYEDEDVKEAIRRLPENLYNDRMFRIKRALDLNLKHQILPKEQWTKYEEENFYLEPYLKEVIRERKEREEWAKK

[2] = molecular target: T1, Cytochrome b-c1 complex subunit 7 (Homo sapiens); test: Binding affinity to human UQCRB at 25 uM by surface plasmon resonance assay

C/C1=C\C[C@]2(C)C(=O)C(O)=C([C@H](C)CO)[C@H]2C/C=C(\C)[C@@H](O)CC/C(C)=C/CC1
Activity [1]: Active | Activity [2]: Active
